Test results taken from EP0527889B1, “QUINOLIZINONE TYPE COMPOUNDS” (priority 1990, dated 1991).
Values after ≈ are worked out from the molar mass of the structure shown. Counter-ions that a name gives are not always drawn.

Columns and labels:
Assay in all cases: In vitro antibacterial activity, MIC by agar dilution
Assay type in all cases: cell-based
Conditions in all cases: BHI agar, 35-37°C, 20-24 hours, unit assumed
[1] = test system: Staphylococcus aureus NCTC 10649
Procedure: (§1) Each plate was inoculated with 1:100 (or 1:10 for slow growing strains, primarily Micrococcus and Streptococcus) dilutions of up to 32 different microorganisms, using a Steers replicator block calibrated to deliver approximately 10^4 colony forming units (CFUs). The inoculated plates were incubated at from about 35°C to about 37°C for approximately 20-24 hours. In addition, a control plate using BHI agar containing no test compound was prepared and incubated at the beginning and at the end of each test. Ciprofloxacin was used as the control antibiotic.
(§2) The MIC was defined as the lowest concentration of test compound yielding no growth (a slight haze or sparsely isolated colonies at the inoculum spot) as compared to the growth control containing no test compound.

[2] = test system: Staphylococcus epidermidis 3519
Procedure: as §1, §2

[3] = test system: Micrococcus luteus ATCC 4698
Procedure: as §1, §2

[4] = test system: Pseudomonas aeruginosa K799/61
Procedure: as §1, §2

[5] = test system: Pseudomonas aeruginosa K799/WT
Procedure: as §1, §2

[6] = test system: Streptococcus pyrogenes CONST
Procedure: as §1, §2

[7] = test system: Staphylococcus aureus A-5278
Procedure: as §1, §2

[8] = test system: Staphylococcus aureus 642A
Procedure: as §1, §2

[9] = test system: Staphylococcus aureus A5177
Procedure: as §1, §2

[10] = test system: Streptococcus pyrogenes EES61
Procedure: as §1, §2

[11] = test system: Pseudomonas aeruginosa 5263
Procedure: as §1, §2

[12] = test system: Staphylococcus aureus 1775
Procedure: as §1, §2

[13] = test system: Micrococcus luteus ATCC 9341
Procedure: as §1, §2

[14] = test system: Escherichia coli KNK 437
Procedure: as §1, §2

[15] = test system: Staphylococcus aureus ATCC 6538P
Procedure: as §1, §2

[16] = test system: Pseudomonas cepacia 296I
Procedure: as §1, §2

[17] = test system: Streptococcus pyrogenes 2548 INDUC
Procedure: as §1, §2

[18] = test system: Escherichia coli JUHL
Procedure: as §1, §2

[19] = test system: Escherichia coli DC-2
Procedure: as §1, §2

[20] = test system: Enterobacter aerogenes ATCC 13048
Procedure: as §1, §2

[21] = test system: Pseudomonas aeruginosa BMH10
Procedure: as §1, §2

[22] = test system: Escherichia coli H560
Procedure: as §1, §2

[23] = test system: Acinetobacter calcoaceticus CMX 669
Procedure: as §1, §2

[24] = test system: Pseudomonas aeruginosa 2862
Procedure: as §1, §2

[25] = test system: Providencia stuartii CMX 640
Procedure: as §1, §2

[26] = test system: Streptococcus bovis A5169
Procedure: as §1, §2

[27] = test system: Enterococcus faecium ATCC 8043
Procedure: as §1, §2

[28] = test system: Klebsiella pneumoniae ATCC 8045
Procedure: as §1, §2

[29] = test system: Escherichia coli SS
Procedure: as §1, §2

[30] = test system: Pseudomonas aeruginosa A5007
Procedure: as §1, §2

[31] = test system: Streptococcus agalactaciae CMX 508
Procedure: as §1, §2

[32] = test system: Staphylococcus aureus CMX 553
Procedure: as §1, §2

SMILES | MIC values [1] [µg/mL] | MIC values [2] [µg/mL] | MIC values [3] [µg/mL] | MIC values [4] [µg/mL] | MIC values [5] [µg/mL] | MIC values [6] [µg/mL] | MIC values [9] [µg/mL] | MIC values [10] [µg/mL] | MIC values [11] [µg/mL] | MIC values [13] [µg/mL] | MIC values [14] [µg/mL] | MIC values [15] [µg/mL] | MIC values [16] [µg/mL] | MIC values [18] [µg/mL] | MIC values [19] [µg/mL] | MIC values [21] [µg/mL] | MIC values [22] [µg/mL] | MIC values [23] [µg/mL] | MIC values [27] [µg/mL] | MIC values [29] [µg/mL] | further results
NC1CCN(c2nc3c(C4CC4)cc(C(=O)O)c(=O)n3cc2F)C1 (centres unmarked) [Example 157, 2-(3-Aminopyrrolidin-1-yl)-9-cyclopropyl-3-fluoro-6H-6-oxo-pyrido[1,2-a]pyrimidine-7-carboxylic acid hydrochloride salt] | 0.2 | 0.39 | 1.56 | 0.05 | 0.2 | 1.56 | 0.39 | 1.56 | 50 | 3.1 | 0.39 | 0.2 | 3.1 | 0.02 | 0.39 | 0.2 | 0.02 | 0.2 | 1.56 | 0.01 | MIC values ([7]; hydrochloride salt): 0.39 µg/mL; MIC values ([8]; hydrochloride salt): 0.39 µg/mL; MIC values ([12]; hydrochloride salt): 25 µg/mL; MIC values ([17]; hydrochloride salt): 0.39 µg/mL; MIC values ([20]; hydrochloride salt): 0.02 µg/mL; MIC values ([24]; hydrochloride salt): 25 µg/mL; MIC values ([25]; hydrochloride salt): 1.56 µg/mL; MIC values ([26]; hydrochloride salt): 3.1 µg/mL; MIC values ([28]; hydrochloride salt): 0.02 µg/mL; MIC values ([30]; hydrochloride salt): 0.39 µg/mL; MIC values [31]: 1.56 µg/mL; MIC values [32]: 0.39 µg/mL
CN1CCN(c2nc3c(-c4ccc(F)cc4F)cc(C(=O)O)c(=O)n3cc2F)CC1 [Example 159, 9-(2,4-Difluorophenyl)-3-fluoro-2-(4-methylpiperazin-1-yl)-6H-6-oxopyridol[1,2-a]pyrimidine-7-carboxylic acid] | 0.2 (≈ 0.478 µM) | 0.39 (≈ 0.932 µM) | 12.5 (≈ 29.9 µM) | 0.39 (≈ 0.932 µM) | 3.1 (≈ 7.41 µM) | 3.1 (≈ 7.41 µM) | 0.39 (≈ 0.932 µM) | 3.1 (≈ 7.41 µM) | > 100 | 25 (≈ 59.8 µM) | 6.2 (≈ 14.8 µM) | 0.2 (≈ 0.478 µM) | 25 (≈ 59.8 µM) | 0.39 (≈ 0.932 µM) | 6.2 (≈ 14.8 µM) | 3.1 (≈ 7.41 µM) | 0.39 (≈ 0.932 µM) | 0.78 (≈ 1.86 µM) | 6.2 (≈ 14.8 µM) | 0.02 (≈ 0.0478 µM) | MIC values [7]: 0.2 µg/mL (≈ 0.478 µM); MIC values [8]: 0.39 µg/mL (≈ 0.932 µM); MIC values [12]: > 100 µg/mL; MIC values [17]: 3.1 µg/mL (≈ 7.41 µM); MIC values [20]: 0.78 µg/mL (≈ 1.86 µM); MIC values [24]: > 100 µg/mL; MIC values [25]: 25 µg/mL (≈ 59.8 µM); MIC values [26]: 12.5 µg/mL (≈ 29.9 µM); MIC values [28]: 0.2 µg/mL (≈ 0.478 µM); MIC values [30]: 6.2 µg/mL (≈ 14.8 µM); MIC values [31]: 3.1 µg/mL (≈ 7.41 µM); MIC values [32]: 0.39 µg/mL (≈ 0.932 µM)
CC(C)(C)OC(=O)NC1CCN(c2nc3c(-c4ccc(F)cc4F)cc(C(=O)O)c(=O)n3cc2F)C1 (centres unmarked) [Example 160, 2-(3-(N-t-butoxycarbonyl)aminopyrrolidin-1-yl)-9-(2,4-difluorophenyl)-3-fluoro-6H-6-oxopyrido[1,2-a]pyrimidine-7-carboxylic acid] | 0.2 (≈ 0.396 µM) | 0.39 (≈ 0.773 µM) | 0.78 (≈ 1.55 µM) | 3.1 (≈ 6.15 µM) | 12.5 (≈ 24.8 µM) | 1.56 (≈ 3.09 µM) | 0.39 (≈ 0.773 µM) | 1.56 (≈ 3.09 µM) | > 100 | 6.2 (≈ 12.3 µM) | 25 (≈ 49.6 µM) | 0.2 (≈ 0.396 µM) | > 100 | 0.39 (≈ 0.773 µM) | 25 (≈ 49.6 µM) | 12.5 (≈ 24.8 µM) | 3.1 (≈ 6.15 µM) | 3.1 (≈ 6.15 µM) | 3.1 (≈ 6.15 µM) | 0.005 (≈ 0.00991 µM) | MIC values [7]: 0.2 µg/mL (≈ 0.396 µM); MIC values [8]: 0.2 µg/mL (≈ 0.396 µM); MIC values [12]: 100 µg/mL (≈ 198 µM); MIC values [17]: 0.78 µg/mL (≈ 1.55 µM); MIC values [20]: 12.5 µg/mL (≈ 24.8 µM); MIC values [24]: > 100 µg/mL; MIC values [25]: > 100 µg/mL; MIC values [26]: 6.2 µg/mL (≈ 12.3 µM); MIC values [28]: 1.56 µg/mL (≈ 3.09 µM); MIC values [30]: 25 µg/mL (≈ 49.6 µM); MIC values [31]: 1.56 µg/mL (≈ 3.09 µM); MIC values [32]: 0.39 µg/mL (≈ 0.773 µM)
NC1CCN(c2nc3c(-c4ccc(F)cc4F)cc(C(=O)O)c(=O)n3cc2F)C1 (centres unmarked) [Example 161, 2-(3-Aminopyrrolidin-1-yl)-9-(2,4-difluorophenyl)-3-fluoro-6H-6-oxopyrido[1,2-a]pyrimidine-7-carboxylic acid] | 0.05 (≈ 0.124 µM) | 0.1 (≈ 0.247 µM) | 3.1 (≈ 7.67 µM) | 0.05 (≈ 0.124 µM) | 0.2 (≈ 0.495 µM) | 0.39 (≈ 0.965 µM) | 0.1 (≈ 0.247 µM) | 0.39 (≈ 0.965 µM) | 100 (≈ 247 µM) | 3.1 (≈ 7.67 µM) | 0.2 (≈ 0.495 µM) | 0.05 (≈ 0.124 µM) | 3.1 (≈ 7.67 µM) | 0.02 (≈ 0.0495 µM) | 0.2 (≈ 0.495 µM) | 0.2 (≈ 0.495 µM) | 0.02 (≈ 0.0495 µM) | 0.05 (≈ 0.124 µM) | 0.78 (≈ 1.93 µM) | 0.005 (≈ 0.0124 µM) | MIC values [7]: 0.1 µg/mL (≈ 0.247 µM); MIC values [8]: 0.1 µg/mL (≈ 0.247 µM); MIC values [12]: 100 µg/mL (≈ 247 µM); MIC values [17]: 0.1 µg/mL (≈ 0.247 µM); MIC values [20]: 0.05 µg/mL (≈ 0.124 µM); MIC values [24]: 100 µg/mL (≈ 247 µM); MIC values [25]: 1.56 µg/mL (≈ 3.86 µM); MIC values [26]: 1.56 µg/mL (≈ 3.86 µM); MIC values [28]: 0.01 µg/mL (≈ 0.0247 µM); MIC values [30]: 0.2 µg/mL (≈ 0.495 µM); MIC values [31]: 0.39 µg/mL (≈ 0.965 µM); MIC values [32]: 0.1 µg/mL (≈ 0.247 µM)
